Laboratory results from patent US12377086B2, “Therapeutic methods, combinations and kits” (priority 2021, dated 2025).
Like-named read-outs stand apart in the source and are kept apart here.

Legend:
Experiment in all cases: biochemical
[1] = biological target: T1, VIM-2 (Pseudomonas aeruginosa, UniProt Q5U7L7)
Method: The pET24a-VIM-2 plasmid was transformed into competent BL21 (DE3) E. coli cells. The cells were plated onto an LB-agar plate with kanamycin (25 μg/mL) and incubated overnight at 37° C. A single colony was used to inoculate 50 mL of LB, containing 25 μg/mL kanamycin, and the culture was shaken overnight at 37° C. From the overnight culture, 10 mL were transferred to 4×IL LB medium containing 25 μg/mL kanamycin. The cultures were grown at 37° C. until an optical density (OD600 nm) of 0.6-0.8 was reached, at which point protein production was induced with IPTG (0.5 mM) and ZnCl2 (100 μM). The temperature was reduced to 20° C., and the cells were shaken for an additional 18 h. The cultures were harvested by centrifugation (8 Kxg) for 10 min at 4° C. The resulting pellets were re-suspended in 25 mL of 50 mM HEPES, pH 7.5, containing 500 mM NaCl (buffer B). The cells were lysed with three passes through a French Press. The lysate was centrifuged (15 Kxg) for 30 min at 4° C. The supernatant was dialyzed against 2 L of 50 mM HEPES, pH 7.5 (buffer A), for 4 h. Buffer A was used to equilibrate a 25 mL Q-Sepharose column using an FPLC. The sample was loaded onto the column, and proteins were eluted with a linear gradient 0-500 mM NaCl with buffer B. Fractions containing VIM-2, determined by SDS-PAGE, were pooled and concentrated to 2-3 mL in an Amicon ultraconcentrator equipped YM-10 membrane. […] Fractions containing pure VIM-2 were pooled, and metal analysis was performed.
The enzyme inhibition constant (Ki) was derived from initial-velocity measurements by nonlinear regression using competitive-inhibition enzyme kinetics using Graphpad Prism 6.

[2] = biological target: T1, VIM-2; remark: listed apart in the source
Method: The pET24a-VIM-2 plasmid was transformed into competent BL21 (DE3) E. coli cells. The cells were plated onto an LB-agar plate with kanamycin (25 μg/mL) and incubated overnight at 37° C. A single colony was used to inoculate 50 mL of LB, containing 25 μg/mL kanamycin, and the culture was shaken overnight at 37° C. From the overnight culture, 10 mL were transferred to 4×IL LB medium containing 25 μg/mL kanamycin. The cultures were grown at 37° C. until an optical density (OD600 nm) of 0.6-0.8 was reached, at which point protein production was induced with IPTG (0.5 mM) and ZnCl2 (100 μM). The temperature was reduced to 20° C., and the cells were shaken for an additional 18 h. The cultures were harvested by centrifugation (8 Kxg) for 10 min at 4° C. The resulting pellets were re-suspended in 25 mL of 50 mM HEPES, pH 7.5, containing 500 mM NaCl (buffer B). The cells were lysed with three passes through a French Press. The lysate was centrifuged (15 Kxg) for 30 min at 4° C. The supernatant was dialyzed against 2 L of 50 mM HEPES, pH 7.5 (buffer A), for 4 h. Buffer A was used to equilibrate a 25 mL Q-Sepharose column using an FPLC. The sample was loaded onto the column, and proteins were eluted with a linear gradient 0-500 mM NaCl with buffer B. Fractions containing VIM-2, determined by SDS-PAGE, were pooled and concentrated to 2-3 mL in an Amicon ultraconcentrator equipped YM-10 membrane. Further purification was conducted with a Sephacryl S-200 gel filtration column using 50 mM HEPES, pH 7.5, containing 150 mM NaCl. Fractions containing pure VIM-2 were pooled, and metal analysis was performed.
(§1) To identify potential MBL inhibitors, the relative change in the formation of hydrolyzed nitrocefin between treated and untreated MBL was determined as percentage inhibition. 5 nM of each BML was pre-incubated for 10 mins with 50 μM of each compound, followed by the addition of 10 μM nitrocefin.
(§2) Each MBL was incubated with 50 μM of each compound, followed by the addition of nitrocefin. The relative change in absorbance is reported as percentage inhibition.

[3] = biological target: NDM-1 (Klebsiella pneumoniae, UniProt C7C422)
Sequence of NDM-1 (C7C422 whole entry, looked up, species assumed): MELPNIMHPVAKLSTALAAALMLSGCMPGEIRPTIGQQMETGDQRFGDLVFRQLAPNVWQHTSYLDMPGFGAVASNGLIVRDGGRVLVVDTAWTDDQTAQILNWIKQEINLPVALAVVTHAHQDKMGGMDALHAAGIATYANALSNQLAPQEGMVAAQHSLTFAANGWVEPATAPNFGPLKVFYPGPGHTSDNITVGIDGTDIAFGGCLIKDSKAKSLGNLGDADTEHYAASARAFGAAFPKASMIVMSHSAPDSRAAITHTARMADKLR
Method: BL21 (DE3) E. coli cells containing the pET26b-ndm-1 plasmid were used to inoculate a 50 mL LB starter culture containing kanamycin (25 μg/mL). The culture was grown overnight at 37° C. The starter culture was then used to inoculate 4×1 L LB containing kanamycin (25 μg/mL). These flasks were incubated at 37° C. until culture reached an optical density of (OD600) of 0.6 to 0.8. The incubator was then set to 22° C. and the cultures were shaken for 30 min to allow them to cool. ZnCl2 ([…]) and IPTG (0.5 mM) were then added to the cultures and they were grown for 18 h at 22° C. The cells were then harvested using centrifugation (8000×g) for 10 min. The pellet was resuspended with 25 mL 50 mM HEPES, pH 7.5 containing 500 mM NaCl (Buffer B). Lysis was performed with three passes through a French Press. The lysate was centrifuged for 30 min (15,000×g) at 4° C. The supernatant was then dialyzed versus 2 L 50 mM HEPES, pH 7.5 (Buffer C) for 4 h. An FPLC was used to equilibrate a Q-Sepharose column using buffer C using a flowrate of 2.0 mL/min for 1.5 h. The lysate was then loaded onto the column and eluted with a linear NaCl gradient from 0-500 mM. Fractions containing NDM-1 were identified with SDS-PAGE. These fractions were pooled and concentrated to 2-3 mL in an Amicon ultracentrifugation concentrating unit with a YM-10 membrane. The resulting protein mixture was then loaded onto a Sephacryl S-200 gel filtration column run with 50 mM HEPES, pH 7.5 containing 150 mM NaCl (Buffer A). SDS-PAGE was used to identify fractions containing pure protein.
as §1, §2

[4] = 5 nM MBL, 10 μM nitrocefin, read-out: VIM-2 IC50
[5] = nitrocefin substrate, competitive-inhibition fit, read-out: VIM-2 Ki
[6] = 50 μM compound, 5 nM MBL, 10 μM nitrocefin, 30 mins
[7] = 50 μM compound, 5 nM MBL, 10 μM nitrocefin, 30 mins, read-out: NDM-1 percentage inhibition
[8] = 50 μM compound, 5 nM MBL, 10 μM nitrocefin, 30 mins, read-out: VIM-2 percentage inhibition
[9] = read-out: NDM-1 percentage inhibition, 50 μM compound, 5 nM MBL, 10 μM nitrocefin, 30 mins
[10] = read-out: VIM-2 percentage inhibition

| Compound | VIM-2 percentage inhibition [2, 6] [%] | inhibition at 50 µM [3, 7] [%] | inhibition at 50 µM [2, 8] [%] | further results |
| --- | --- | --- | --- | --- |
| Oc1c(Cl)cc(Cl)c2cccnc12 [Compound 47] | 96 |  |  | IC50 [1, 4]: 4.1 µM; Ki [1, 5]: 1.1 µM |
| Nc1nc(S)ncc1C(=O)O [Compound 7] |  | 44 | 9 |  |
| Cc1cc(C(=O)O)nc(O)n1 [Compound 27] |  | 54 | 17 |  |
| Oc1ccc2cccnc2c1 [Compound 37] | 3 |  |  | NDM-1 percentage inhibition [3, 6]: 8% |
| Nc1cccc2cccnc12 [Compound 38] | 43 |  |  | NDM-1 percentage inhibition [3, 6]: 3% |
| CCOC(=O)CS [Compound 2] |  | 55 | 16 |  |
| Cc1nc(S)nc(O)c1CC(=O)O [Compound 8] |  | 63 | 18 |  |
| O=C1[C@@H](c2ccccc2)SCN1O [Compound 17] | 33 | 40 | 40 | IC50 [1]: 41 µM; Ki [1]: 5.3 µM |
| O=c1c2ccccc2[nH]c(=S)n1O [Compound 21] |  |  | 27 |  |
| O=C(O)/C(S)=C\c1cccnc1 [Compound 5] |  | 40 | 40 | IC50 [1]: 24 µM; Ki [1]: 4.5 µM; NDM-1 percentage inhibition [3, 6]: 39% |
| O=C1c2ccccc2C(=O)N1O [Compound 18] |  | 30 | 18 |  |
| Oc1ccc2ncccc2c1 [Compound 36] | 7 |  |  | NDM-1 percentage inhibition [3, 6]: 1% |
| Oc1cnc2ccccc2c1 [Compound 33, 3-hydroxyquinoline] |  |  |  | inhibition at 50 µM [3, 9]: 33%; inhibition at 50 µM ([2]; read-out: VIM-2 percentage inhibition, 50 μM compound, 5 nM MBL, 10 μM nitrocefin, 30 mins): 95% |
| O=C(NO)c1n[nH]c(Cl)n1 [Compound 16] |  | 49 | 8 |  |
| Cc1cc(C)n(-c2nc3ccccc3c(=O)n2O)n1 [Compound 20] |  |  | 16 |  |
| CC(S)C(=O)O (centres unmarked) [Compound 3] |  | 50 | 17 |  |
| CC(C)Cc1cc(C(=O)O)nc(O)n1 [Compound 26] |  | 58 | 5 |  |
| Cc1cc(C(=O)O)nc2[nH][nH]c(=O)c12 [Compound 30] |  | 66 | 21 |  |
| O=C(O)c1c(O)cccc1O [Compound 14] |  | 51 | 4 |  |
| Oc1ccnc(S)n1 [Compound 6] |  |  |  | inhibition at 50 µM [3, 9]: 48%; inhibition at 50 µM [2, 10]: 13% |
| O=C(c1ccc(O)cc1)c1ccc(O)c(O)c1O [Compound 13] | 48 | 40 | 40 | IC50 [1]: 81 µM; Ki [1]: 8.8 µM; NDM-1 percentage inhibition [3, 6]: 36% |
| Sc1nccc(-c2ccccn2)n1 [Compound 9] |  | 43 | 29 |  |
| Cc1ccc2c(Cl)cc(Cl)c(O)c2n1 [Compound 50] | 95 |  |  | IC50 [1, 4]: 4.8 µM; Ki [1, 5]: 0.96 µM |

| Compound | VIM-2 percentage inhibition [2, 6] [%] | inhibition at 50 µM [3, 7] [%] | inhibition at 50 µM [2, 8] [%] | further results |
| --- | --- | --- | --- | --- |
| O=C(CCCCCCC(=O)Nc1ccccc1)NO [Compound 15, SAHA, reference compound] |  |  | 18 |  |
| Cc1cc(C(=O)O)nc2[nH]c(=S)[nH]c(=O)c12 [Compound 11] |  | 50 | 20 |  |
| O=c1c(-c2ccco2)[n+]([O-])c2ccccc2n1O [Compound 22] |  | 12 | 9 |  |
| O=C(O)c1ccnc2c(O)cccc12 [Compound 44] | 92 |  |  |  |
| [O-][n+]1cccc2cccc(O)c21 [Compound 39] | 27 |  |  | NDM-1 percentage inhibition [3, 6]: 7% |
| Oc1cccc2ncccc12 [Compound 35] | 6 |  |  | NDM-1 percentage inhibition [3, 6]: 6% |
| O=C(O)c1cc(O)cc(C(=O)O)n1 [Compound 25] |  |  |  | inhibition at 50 µM [2, 10]: 27% |
| Oc1c(Br)cc(Br)c2cccnc12 [Compound 49] | 92 |  |  |  |
| O=C(O)c1cnc2c(O)cccc2c1 [Compound 43] | 91 |  |  | IC50 [1, 4]: 1.6 µM; Ki [1, 5]: 0.53 µM |
| Nc1ccc(O)c2ncccc12 [Compound 42] | 96 |  |  | IC50 [1, 4]: 3.8 µM; Ki [1, 5]: 0.88 µM |
| Cc1ccc2cccc(O)c2n1 [Compound 40] | 77 |  |  | NDM-1 percentage inhibition [3, 6]: 9% |
| Sc1nccc(-c2cccs2)n1 [Compound 10] |  | 8 | 21 |  |
| Oc1ccc2ccccc2n1 [Compound 32] | 9 |  |  | NDM-1 percentage inhibition [3, 6]: 0% |
| O=c1c(-c2cccs2)[n+]([O-])c2ccccc2n1O [Compound 23] |  | 51 | 25 |  |
| O=C(O)CC(S)C(=O)O (centres unmarked) [Compound 4] |  |  |  | inhibition at 50 µM [3, 9]: 39%; inhibition at 50 µM [2, 10]: 22% |
| O=C(O)c1cccc(C(=O)O)n1 [Compound 24] |  |  |  | inhibition at 50 µM [3, 9]: > 50%; inhibition at 50 µM [2, 10]: 15% |
| Cc1ccc(O)c(CO)n1 [Compound 28] |  | 53 | 25 |  |
| CC(C)c1cc(C(=O)O)nc2[nH][nH]c(=O)c12 [Compound 29] |  |  | 18 |  |
| CC(=O)c1ccc(O)c(O)c1O [Compound 12] |  | 18 | 22 |  |
| Cc1nc2ccccc2c(=O)n1O [Compound 19] |  | 46 | 22 |  |
| Oc1ccnc2ccccc12 [Compound 34] | 9 |  |  | NDM-1 percentage inhibition [3, 6]: 1% |
| Oc1ccc(Cl)c2cccnc12 [Compound 46] | 98 |  |  | IC50 [1, 4]: 4.1 µM; Ki [1, 5]: 0.96 µM |
